IC50 data for one substance are collected here from paper PMC8772433 (Nature structural & molecular biology, 2021).

This assay concerns the target SARS-CoV-2 ORF3a (3a), dimer (Severe acute respiratory syndrome coronavirus 2, UniProt P0DTC3). Kind of assay: patch-clamp current recording, excised inside-out patches of 3a-proteoliposomes. The format is biochemical. The following applies: symmetric 150 mM KCl, pH 7.2, -80 mV, room temperature; soy PC proteoliposomes; flickery block at negative potentials. (The patch-clamp technique gives a direct electrical read-out from membranes.)

Chain of SARS-CoV-2 ORF3a (3a), dimer (P0DTC3 whole entry): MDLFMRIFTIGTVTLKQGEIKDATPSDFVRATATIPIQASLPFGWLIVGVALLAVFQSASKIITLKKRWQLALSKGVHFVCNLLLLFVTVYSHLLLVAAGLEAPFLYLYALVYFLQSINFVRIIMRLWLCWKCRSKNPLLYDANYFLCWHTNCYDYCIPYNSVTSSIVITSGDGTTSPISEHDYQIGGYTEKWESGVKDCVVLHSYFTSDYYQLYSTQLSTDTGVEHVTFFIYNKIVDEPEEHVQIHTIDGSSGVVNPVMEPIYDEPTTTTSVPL

In general, IC50 refers to the point on the concentration scale where inhibition reaches its midpoint. A low value points to higher potency. In the case of Ruthenium Red, the concentration for half-maximal inhibition (IC50) was determined as 90 ± 10 µM.
